Data as given in PMC12278462, “Site-selective arylations of nature-inspired flavonoids or steroidal phenols via C—H or O—H activation” (Journal of Enzyme Inhibition and Medicinal Chemistry, 2025).

Tests used:
SiHa = test: MTT antiproliferative assay, SiHa; format: cell-based, human; conditions: Homo sapiens, SiHa, 72 h; for IC50: read-out: calculated IC50 SiHa
Method: (§1) We evaluated the cytotoxic activity of the newly synthesised arylated compounds 13–17 by the MTT assay[37] on a panel of human adherent cancer cell lines. The panel included breast (MCF-7 and MDA MB-231) and cervical (HeLa, SiHa and C33A) cancer cell lines differing in receptorial or HPV status. Tumour selectivity was determined on the NIH/3T3 mouse fibroblast cell line.
(§2) Briefly, the panels of breast and cervical cancerous cell lines, differing by their receptorial and HPV status were used, precisely MCF-7 (ER, PR and HER2 positive) and MDA-MB-231 (TNBC) breast carcinoma and HeLa (HPV18+), SiHa (HPV16+), C33A (HPV-) cervical carcinoma cells. Non-cancerous NIH/3T3 mouse fibroblast cell line was used for selectivity study. MCF-7, MDA-MB-231, Hela and NIH/3T3 cell lines were purchased from ECACC (European Collection of Cell Cultures, Salisbury, UK), while SiHa and C33A from ATCC (American Tissue Culture Collection, LGC Standards GmbH, Wesel, Germany). Cells were maintained in Eagle's Minimum Essential Medium (EMEM, Capricorn Scientific GmbH, Ebsdorfergrund, Germany) supplemented with 10% heat-inactivated fetal bovine serum (FBS), 1% non-essential amino acids (NEAA), and 1% antibiotic-antimycotic mixture (penicillin–streptomycin). The cells were maintained at 37 °C in a humidified atmosphere containing 5% CO2.
(§3) For measurements cells were seeded for 96-well plates at a density of 5 000/well, except for C33A, which was seeded in 10 000cells for each well. After overnight standing cells were treated with 10 and 30 µM solutions for screening and increasing concentrations (0.1-30.0 µM) of the test compounds were used for concentration-response curves. After incubation for 72 hours under cell culturing condition 5 mg/ml MTT (3-(4,5-[…])-2,5-diphenyl-2H-tetrazolium bromide) solution was added for another 4 h. The precipitated formazan crystals were solubilized in DMSO and the absorbance was measured at 545 nm with a microplate reader (BMG Labtech, Ortenberg, Germany). Wells with untreated cells were utilized as control, and inhibition % were calculated by GraphPad Prism v 9.0 software (GraphPad Software, San Diego, CA, USA). If the growth-inhibition exceeded 70% at 30 µM concentration during the screening concentration-response curves were fitted and IC50 values were calculated by GraphPad Prism v 9.0. The experiments were performed with five parallel wells for each experimental condition and repeated at least twice.

MCF-7 = test: MTT antiproliferative assay, MCF-7; format: cell-based, human; conditions: Homo sapiens; for inhibition at 10 µM: MCF7, 10 µM; for inhibition at 10 µM / inhibition at 30 µM: 72 h; for inhibition at 30 µM: MCF7, 30 µM; for IC50: MCF7, 72 h, read-out: calculated IC50 MCF-7
Method: as §1, §2, §3

MDA-MB-231 = test: MTT antiproliferative assay, MDA-MB-231; format: cell-based, human; conditions: Homo sapiens; for inhibition at 10 µM: MDA-MB-231, 10 µM; for inhibition at 10 µM / inhibition at 30 µM: 72 h; for inhibition at 30 µM: MDA-MB-231, 30 µM; for IC50: MDA-MB-231, 72 h, read-out: calculated IC50 MDA-MB-231
Method: as §1, §2, §3

HeLa = test: MTT antiproliferative assay, HeLa; format: cell-based, human; conditions: Homo sapiens, HeLa, 72 h; for IC50: read-out: calculated IC50 HeLa
Method: as §1, §2, §3

[1] = test system: NIH/3T3 mouse fibroblast cell line; test: MTT assay, tumour selectivity on non-cancerous fibroblasts; format: cell-based; conditions: Mus musculus; for inhibition at 10 µM: NIH3T3, 10 µM; for inhibition at 10 µM / inhibition at 30 µM: 72 h; for inhibition at 30 µM: NIH3T3, 30 µM; for IC50: NIH3T3, 72 h, read-out: calculated IC50 NIH/3T3
Method: as §1, §2, §3

C33A = test: MTT antiproliferative assay, C33A; format: cell-based, human; conditions: Homo sapiens, C-33-A, 72 h; for IC50: read-out: calculated IC50 C33A
Method: as §1, §2, §3

17β-HSD1 = biological target: T1, 17β-HSD1 (Homo sapiens, UniProt P14061); test: 17β-HSD1 enzymatic assay (E1 to E2, LC-MS/MS); format: biochemical; conditions: read-out: 17β-HSD1 Inhibition (% ± SD); for inhibition at 10 µM: 10 µM test concentration; for inhibition at 100 µM: 100 µM test concentration
T1 sequence (P14061 1-328): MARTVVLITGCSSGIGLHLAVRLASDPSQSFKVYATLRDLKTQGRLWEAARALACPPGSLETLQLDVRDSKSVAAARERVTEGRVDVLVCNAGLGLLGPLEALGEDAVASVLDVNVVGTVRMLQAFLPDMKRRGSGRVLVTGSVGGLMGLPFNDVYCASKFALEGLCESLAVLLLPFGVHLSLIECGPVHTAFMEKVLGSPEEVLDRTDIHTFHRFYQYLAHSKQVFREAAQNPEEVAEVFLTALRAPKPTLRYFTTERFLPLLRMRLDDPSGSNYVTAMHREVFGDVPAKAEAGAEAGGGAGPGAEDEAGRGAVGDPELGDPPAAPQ
Method: The bacterial homogenate of E. coli overexpressing HSD17B1 was previously prepared as described in references ^S2,S3, and stored in aliquots at -80 °C. Before conducting experiments, aliquots were quickly thawed and diluted twice with 100 mM sodium phosphate buffer (pH 6.5; #14457, #1411007, Kemika), then kept on ice. The enzymatic assay was performed as described in ^S3. Briefly, a 1 mL enzymatic reaction mixture was prepared in 2 mL microcentrifuge tubes with the following components: 10 µL of the test inhibitor dissolved in dimethyl sulfoxide (DMSO; #276855, Sigma Aldrich) or 10 µL of DMSO for control samples, 5 µL of 14 µM substrate estrone (E1; CAS 53-16-7; #E2300-000, Steraloids), 10 µL of 10 mM NADPH (#AE14, Carl Roth) prepared in 100 mM sodium phosphate buffer, and 965 µL of 100 mM sodium phosphate buffer (pH 6.5). The reaction mixture was mixed thoroughly before adding 10 µL of bacterial homogenate. Immediately after addition, the tubes were transferred to an Eppendorf thermoshaker (#5382000031, Eppendorf) and incubated at 37 °C for 10 minutes. To stop the reaction, 60 µL of 1.26 M ascorbic acid (#A92902, Sigma Aldrich) in methanol (#34966, Honeywell/Riedel-de Haen) /acetic acid (#1.00063, Merck) (99:1, v/v) was added. The samples were then immediately processed using solid-phase extraction (SPE). The assay was repeated in three independent experiments, with each experiment performed in technical duplicate.
The preparation of samples for liquid chromatography-tandem mass spectrometry (LC-MS/MS) involved SPE. Stock solutions of E1 and 17β-estradiol (E2; CAS: 50-28-2; #142406, Steraloids) were prepared gravimetrically and dissolved in methanol (#34966, Honeywell/Riedel-de Haen). A working calibrator solution containing both steroids was then prepared by mixing appropriate volumes of the stock solutions in methanol to achieve a final concentration of 1 µg/mL for each steroid. Eight-point calibration curves (excluding zero and blank) were prepared in 100 mM sodium phosphate buffer (pH 6.5). For each 1 mL reaction mixture or calibrator, 10 µL of 100 ng/mL internal standard solution containing [2,3,4-13C3]-17β-estradiol (#719552, Sigma Aldrich) was added. Samples were mixed thoroughly and incubated at room temperature for 15 minutes.
SPE was performed using Strata X 33 µm polymeric reversed-phase columns (30 mg/mL tubes; #8B-S100-TAK, Phenomenex). The procedure involved the following steps: column conditioning with 1 mL of methanol, column equilibration with 1 mL of H₂O (#1.15333, Supelco), sample loading (1 mL sample or calibrator), column washing with 1 mL of H₂O, column drying under high vacuum for 10 minutes, and finally elution with 1 mL of methanol directly into HPLC glass vials (#702713, Macherey-Nagel GmbH/Co). The eluted samples were stored at -20 °C until LC-MS/MS analysis.

## CCCCOC1(c2cc(=O)c3c(Oc4ccccc4)cc(O)cc3o2)C=CC(=O)C=C1 [17a, 2-(1-Butoxy-4-oxocyclohexa-2,5-dienyl)-7-hydroxy-5-phenoxy-chromen-4-one]
SiHa
  inhibition at 10 µM: 86.2%
  inhibition at 30 µM: 95%
  IC50: 1290 nM
MCF-7
  inhibition at 10 µM: 93.1%
  inhibition at 30 µM: 93.7%
  IC50: 970 nM
MDA-MB-231
  inhibition at 10 µM: 95.7%
  inhibition at 30 µM: 96.9%
  IC50: 720 nM
HeLa
  inhibition at 10 µM: 93.6%
  inhibition at 30 µM: 94.3%
  IC50: 1160 nM
[1]
  inhibition at 10 µM: 94.2%
  inhibition at 30 µM: 98.7%
  IC50: 2330 nM
C33A
  inhibition at 10 µM: 98.1%
  inhibition at 30 µM: 98.5%
  IC50: 430 nM

## C[C@@]12CC[C@@H]3c4c(cc(O)cc4-c4ccccc4)CC[C@H]3[C@@H]1CCC2=O [14a, 3-hydroxy-1-phenyl-13α-estra-1,3,5(10)-triene-17-one]
SiHa
  inhibition at 10 µM: < 10%
  inhibition at 30 µM: < 10%
MCF-7
  inhibition at 10 µM: 13.1%
  inhibition at 30 µM: 15.4%
MDA-MB-231
  inhibition at 10 µM: < 10%
  inhibition at 30 µM: < 10%
17β-HSD1
  inhibition at 10 µM: 36.1 ± 10.2%
  inhibition at 100 µM: 73.3 ± 7.5%
HeLa
  inhibition at 10 µM: 16.1%
  inhibition at 30 µM: 43%
[1]
  inhibition at 10 µM: 13.5%
  inhibition at 30 µM: 22.5%
C33A
  inhibition at 10 µM: < 10%
  inhibition at 30 µM: 12.7%

## CCCCOC1(c2cc(=O)c3c(Oc4ccc(Br)cc4)cc(O)cc3o2)C=CC(=O)C=C1 [17b, 5-(4-Bromophenoxy)-2-(1-butoxy-4-oxocyclohexa-2,5-dienyl)-7-hydroxy-chromen-4-one]
SiHa
  inhibition at 10 µM: 84.5%
  inhibition at 30 µM: 93.8%
  IC50: 1390 nM
MCF-7
  inhibition at 10 µM: 97.4%
  inhibition at 30 µM: 98.4%
  IC50: 1150 nM
MDA-MB-231
  inhibition at 10 µM: 97%
  inhibition at 30 µM: 97.9%
  IC50: 730 nM
HeLa
  inhibition at 10 µM: 97%
  inhibition at 30 µM: 97.7%
  IC50: 1090 nM
[1]
  inhibition at 10 µM: 97.5%
  inhibition at 30 µM: 98.6%
  IC50: 1610 nM
C33A
  inhibition at 10 µM: 97.7%
  inhibition at 30 µM: 97.8%
  IC50: 520 nM

## C[C@@]12CC[C@@H]3c4c(cc(O)cc4-c4ccc(Br)cc4)CC[C@H]3[C@@H]1CCC2=O [14b, 1-(4-bromophenyl)-3-hydroxy-13α-estra-1,3,5(10)-triene-17-one]
SiHa
  inhibition at 10 µM: < 10%
  inhibition at 30 µM: 59.7%
MCF-7
  inhibition at 10 µM: 35.1%
  inhibition at 30 µM: 81.5%
  IC50: 13500 nM
MDA-MB-231
  inhibition at 10 µM: < 10%
  inhibition at 30 µM: 46.8%
17β-HSD1
  inhibition at 10 µM: 35.9 ± 8%
  inhibition at 100 µM: 76.6 ± 5.1%
HeLa
  inhibition at 10 µM: 26.5%
  inhibition at 30 µM: 71.6%
  IC50: 17500 nM
[1]
  inhibition at 10 µM: 16.1%
  inhibition at 30 µM: 41.7%
C33A
  inhibition at 10 µM: 28.7%
  inhibition at 30 µM: 57%
